pIC50: −log10 of the molar value. Values after ≈ are worked out from the molar mass of the structure shown.
How the values were obtained:
Cryptococcus neoformans = experiment: Antifungal activity against Cryptococcus neoformans ATCC 32719 after 24 hrs by two-fold serial dilution method; format: functional; settings: ATCC 32719, 24 h
Staphylococcus aureus [1] = experiment: Antibacterial activity against Methicillin-resistant Staphylococcus aureus N 315 after 24 hrs by two-fold serial dilution method; format: functional; settings: N 315, 24 h
[2] = Inhibition of Candida tropicalis ATCC 750 chitin synthase using UDP-GlcNAc as substrate after 60 mins by microplate reader method
Staphylococcus aureus [3] = experiment: Antibacterial activity against Staphylococcus aureus ATCC 25923 after 24 hrs by two-fold serial dilution method; format: functional; settings: ATCC 25923, 24 h
Bacillus spizizenii = experiment: Antibacterial activity against Bacillus subtilis ATCC 6633 after 24 hrs by two-fold serial dilution method; format: functional; settings: ATCC 6633, 24 h
Pseudomonas aeruginosa = experiment: Antibacterial activity against Pseudomonas aeruginosa ATCC 9027 after 24 hrs by two-fold serial dilution method; format: functional; settings: ATCC 9027, 24 h
Escherichia coli = experiment: Antibacterial activity against Escherichia coli JM 109 after 24 hrs by two-fold serial dilution method; format: functional; settings: JM 109, 24 h
Candida albicans = experiment: Antifungal activity against Candida albicans CMCC 76615 after 24 hrs by two-fold serial dilution method; format: functional; settings: CMCC 76615, 24 h
Proteus vulgaris = experiment: Antibacterial activity against Proteus vulgaris ATCC 8427 after 24 hrs by two-fold serial dilution method; format: functional; settings: ATCC 8427, 24 h
Aspergillus flavus = experiment: Antifungal activity against Aspergillus flavus ATCC 16870 after 24 hrs by two-fold serial dilution method; format: functional; settings: ATCC 16870, 24 h
Candida tropicalis = experiment: Inhibition of Candida tropicalis ATCC 750 chitin synthase using UDP-GlcNAc as substrate at 300 ug/ml after 60 mins by microplate reader method
Aspergillus fumigatus = experiment: Antifungal activity against Aspergillus fumigatus GIMCC 3.19 after 24 hrs by two-fold serial dilution method; format: functional; settings: GIMCC 3.19, 24 h

SMILES | MIC (Cryptococcus neoformans) [µg/mL] | MIC (Staphylococcus aureus [1]) [µg/mL] | pIC50 [2] | MIC (Staphylococcus aureus [3]) [µg/mL] | MIC (Bacillus spizizenii) [µg/mL] | MIC (Pseudomonas aeruginosa) [µg/mL] | MIC (Escherichia coli) [µg/mL] | MIC (Candida albicans) [µg/mL] | MIC (Proteus vulgaris) [µg/mL] | MIC (Aspergillus flavus) [µg/mL] | inhibition (Candida tropicalis) [%] | MIC (Aspergillus fumigatus) [µg/mL]
COC(=O)C(Cc1ccccc1)NP(=O)(OCCN(C)c1cc(=O)oc2cc(C)ccc12)Oc1ccccc1 (stereo not given) | 32 (≈ 58.1 µM) | 2 (≈ 3.63 µM) | 3.52 | 32 (≈ 58.1 µM) | 16 (≈ 29.1 µM) | 128 (≈ 232 µM) | 16 (≈ 29.1 µM) | 64 (≈ 116 µM) | 16 (≈ 29.1 µM) | 1 (≈ 1.82 µM) | 56 | 64 (≈ 116 µM)
COC(=O)CNP(=O)(OCCN(C)c1cc(=O)oc2c(C)cccc12)Oc1ccccc1 (stereo not given) | 64 (≈ 139 µM) | 256 (≈ 556 µM) | 3.35 | 128 (≈ 278 µM) | 512 (≈ 1110 µM) | 256 (≈ 556 µM) | 32 (≈ 69.5 µM) | 64 (≈ 139 µM) | 256 (≈ 556 µM) | 64 (≈ 139 µM) | 55 | 128 (≈ 278 µM)
COC(=O)C(NP(=O)(OCCN(C)c1cc(=O)oc2ccc(C(C)(C)C)cc12)Oc1ccccc1)C(C)C (stereo not given) | 32 (≈ 58.8 µM) | 16 (≈ 29.4 µM) | 3.74 | 32 (≈ 58.8 µM) | 16 (≈ 29.4 µM) | 32 (≈ 58.8 µM) | 16 (≈ 29.4 µM) | 64 (≈ 118 µM) | 32 (≈ 58.8 µM) | 2 (≈ 3.67 µM) | 62 | 64 (≈ 118 µM)
COC(=O)CNP(=O)(OCCN(C)c1cc(=O)oc2ccccc12)Oc1ccccc1 (stereo not given) | 64 (≈ 143 µM) | 256 (≈ 573 µM) | 3.19 | 256 (≈ 573 µM) | 512 (≈ 1150 µM) | 256 (≈ 573 µM) | 128 (≈ 287 µM) | 64 (≈ 143 µM) | 512 (≈ 1150 µM) | 128 (≈ 287 µM) | 49 | 128 (≈ 287 µM)
COC(=O)C(C)NP(=O)(OCCN(C)c1cc(=O)oc2ccccc12)Oc1ccccc1 (stereo not given) | 8 (≈ 17.4 µM) | 512 (≈ 1110 µM) | 3.82 | 512 (≈ 1110 µM) | 512 (≈ 1110 µM) | 512 (≈ 1110 µM) | 512 (≈ 1110 µM) | 32 (≈ 69.5 µM) | 512 (≈ 1110 µM) | 64 (≈ 139 µM) | 77 | 32 (≈ 69.5 µM)
COC(=O)C(Cc1ccccc1)NP(=O)(OCCN(C)c1cc(=O)oc2ccccc12)Oc1ccccc1 (stereo not given) | 64 (≈ 119 µM) | 128 (≈ 239 µM) | 3.60 | 64 (≈ 119 µM) | 128 (≈ 239 µM) | 64 (≈ 119 µM) | 64 (≈ 119 µM) | 64 (≈ 119 µM) | 16 (≈ 29.8 µM) | 8 (≈ 14.9 µM) | 59 | 128 (≈ 239 µM)
COC(=O)CNP(=O)(OCCN(C)c1cc(=O)oc2cc(C)ccc12)Oc1ccccc1 (stereo not given) | 16 (≈ 34.8 µM) | 256 (≈ 556 µM) | 3.49 | 256 (≈ 556 µM) | 512 (≈ 1110 µM) | 512 (≈ 1110 µM) | 128 (≈ 278 µM) | 32 (≈ 69.5 µM) | 512 (≈ 1110 µM) | 64 (≈ 139 µM) | 59 | 32 (≈ 69.5 µM)
COC(=O)CNP(=O)(OCCN(C)c1cc(=O)oc2ccc(C)cc12)Oc1ccccc1 (stereo not given) | 64 (≈ 139 µM) | 256 (≈ 556 µM) | 3.22 | 256 (≈ 556 µM) | 256 (≈ 556 µM) | 128 (≈ 278 µM) | 512 (≈ 1110 µM) | 128 (≈ 278 µM) | 512 (≈ 1110 µM) | 64 (≈ 139 µM) | 51 | 64 (≈ 139 µM)
COC(=O)C(C)NP(=O)(OCCN(C)c1cc(=O)oc2ccc(C(C)(C)C)cc12)Oc1ccccc1 (stereo not given) | 64 (≈ 124 µM) | 1 (≈ 1.94 µM) | 3.77 | 64 (≈ 124 µM) | 16 (≈ 31 µM) | 16 (≈ 31 µM) | 16 (≈ 31 µM) | 64 (≈ 124 µM) | 16 (≈ 31 µM) | 16 (≈ 31 µM) | 62 | 64 (≈ 124 µM)
COC(=O)C(C)NP(=O)(OCCN(C)c1cc(=O)oc2ccc(C)cc12)Oc1ccccc1 (stereo not given) | 32 (≈ 67.4 µM) | 256 (≈ 540 µM) | 3.59 | 256 (≈ 540 µM) | 256 (≈ 540 µM) | 512 (≈ 1080 µM) | 16 (≈ 33.7 µM) | 64 (≈ 135 µM) | 512 (≈ 1080 µM) | 128 (≈ 270 µM) | 61 | 64 (≈ 135 µM)
